The term inhibition denotes the drop in the measured response relative to a control, in per cent.

Each structure is given as a SMILES string.

Assay [1] has as its target T1, Mitogen-activated protein kinase 12 (Homo sapiens) (UniProt P53778).
T1 sequence (whole entry): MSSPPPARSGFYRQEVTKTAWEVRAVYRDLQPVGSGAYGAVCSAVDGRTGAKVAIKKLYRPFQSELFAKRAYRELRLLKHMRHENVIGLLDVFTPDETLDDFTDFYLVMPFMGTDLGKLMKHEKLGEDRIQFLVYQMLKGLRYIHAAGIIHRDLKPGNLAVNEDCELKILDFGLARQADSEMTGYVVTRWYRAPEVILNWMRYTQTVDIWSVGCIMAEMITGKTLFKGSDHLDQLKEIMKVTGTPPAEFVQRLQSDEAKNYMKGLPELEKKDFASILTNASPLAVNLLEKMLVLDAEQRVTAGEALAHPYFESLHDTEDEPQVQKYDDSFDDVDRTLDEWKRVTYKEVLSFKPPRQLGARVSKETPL
As to the kind of experiment: Inhibition of p38-gamma (unknown origin) at 0.164 uM relative to control.

In assay [2] the target is Casein kinase I isoform gamma-3 (Homo sapiens) (UniProt Q9Y6M4). Kind of assay: Inhibition of CK1-gamma3 (unknown origin) at 0.164 uM relative to control.
Assay [3] concerns the target Serine/threonine-protein kinase Sgk1 (Homo sapiens) (UniProt O00141). As to the kind of experiment: Inhibition of SGK1 (unknown origin) at 0.164 uM relative to control.
The target of assay [4] is Misshapen-like kinase 1 (Homo sapiens) (UniProt Q8N4C8). Kind of assay: Inhibition of MINK (unknown origin) at 0.164 uM relative to control.
The target in assay [5] is Serine/threonine-protein kinase pim-3 (Homo sapiens) (UniProt Q86V86). As to the kind of experiment: Inhibition of PIM3 (unknown origin) at 0.164 uM relative to control.
In assay [6] the target is Discoidin domain-containing receptor 2 (Homo sapiens) (UniProt Q16832). Kind of assay: Inhibition of DDR2 (unknown origin) at 0.164 uM relative to control.
Assay [7] deals with Serine/threonine-protein kinase PAK 4 (Homo sapiens) (UniProt O96013). As to the kind of experiment: Inhibition of PAK4 (unknown origin) at 0.164 uM relative to control.
Assay [8] has as its target RAC-gamma serine/threonine-protein kinase (Homo sapiens) (UniProt Q9Y243). As to the kind of experiment: Inhibition of AKT3 (unknown origin) at 0.164 uM relative to control.
Assay [9] has as its target Dual specificity tyrosine-phosphorylation-regulated kinase 4 (Homo sapiens) (UniProt Q9NR20). As to the kind of experiment: Inhibition of DYRK4 (unknown origin) at 0.164 uM relative to control.
Assay [10] concerns the target Homeodomain-interacting protein kinase 2 (Homo sapiens) (UniProt Q9H2X6). As to the kind of experiment: Inhibition of HIPK2 (unknown origin) at 0.164 uM relative to control.
The target in assay [11] is Dual specificity tyrosine-phosphorylation-regulated kinase 2 (Homo sapiens) (UniProt Q92630). Kind of assay: Inhibition of DYRK2 (unknown origin) at 0.164 uM relative to control.
For assay [12], the system named is Fibroblast growth factor receptor 4 (Homo sapiens), P22455 [V550L]. Kind of assay: Inhibition of FGFR4 V550L mutant (unknown origin) at 0.164 uM relative to control.
Assay [13] has as its target Calcium/calmodulin-dependent protein kinase type II subunit beta (Homo sapiens) (UniProt Q13554). As to the kind of experiment: Inhibition of CaMK2-beta (unknown origin) at 0.45 uM relative to control.
Assay [14] deals with CDK4/Cyclin D3 (Homo sapiens) (UniProt P11802+P30281). Kind of assay: Inhibition of CDK4/CyclinD3 (unknown origin) at 0.45 uM relative to control. The class given is protein-complex assay.
Assay [15] addresses Tyrosine-protein kinase Lyn (Homo sapiens) (UniProt P07948). As to the kind of experiment: Inhibition of LYN (unknown origin) at 0.19 uM relative to control.
Assay [16] concerns the target Cytoplasmic tyrosine-protein kinase BMX (Homo sapiens) (UniProt P51813). As to the kind of experiment: Inhibition of BMX (unknown origin) at 0.19 uM relative to control.
The target in assay [17] is Mitogen-activated protein kinase 14 (Homo sapiens) (UniProt Q16539). As to the kind of experiment: Inhibition of p38a (unknown origin) at 0.19 uM relative to control.
Assay [18] deals with Serine/threonine-protein kinase 3 (Homo sapiens) (UniProt Q13188). Kind of assay: Inhibition of MST2 (unknown origin) at 0.19 uM relative to control.
Assay [19] addresses Calcium/calmodulin-dependent protein kinase type II subunit beta (Homo sapiens) (UniProt Q13554). Kind of assay: Inhibition of CAMK2 (unknown origin) at 0.19 uM relative to control.
Assay [20] concerns the target Dual specificity tyrosine-phosphorylation-regulated kinase 1A (Homo sapiens) (UniProt Q13627). As to the kind of experiment: Inhibition of DYRK1a (unknown origin) at 0.19 uM relative to control.
The target of assay [21] is Tyrosine-protein kinase Fgr (Homo sapiens) (UniProt P09769). Kind of assay: Inhibition of FGR (unknown origin) at 0.19 uM relative to control.
Assay [22] deals with AMPK alpha2/beta1/gamma1 (Homo sapiens) (UniProt P54646+P54619+Q9Y478). As to the kind of experiment: Inhibition of AMPK-alpha2/beta1/gamma1 (unknown origin) at 0.19 uM relative to control. The class given is protein-complex assay.
For assay [23], the target named is Discoidin domain-containing receptor 2 (Homo sapiens) (UniProt Q16832). Kind of assay: Inhibition of DDR2 (unknown origin) at 0.19 uM relative to control.
The subject of assay [24] is Platelet-derived growth factor receptor alpha (Homo sapiens), P16234 [D842V]. As to the kind of experiment: Inhibition of PDGFRA D842V mutant (unknown origin) at 0.19 uM relative to control.
Assay [25] addresses Serine/threonine-protein kinase PAK 3 (Homo sapiens) (UniProt O75914). Kind of assay: Inhibition of PAK3 (unknown origin) at 0.19 uM relative to control.
Assay [26] addresses Serine/threonine-protein kinase Nek6 (Homo sapiens) (UniProt Q9HC98). Kind of assay: Inhibition of NEK6 (unknown origin) at 0.19 uM relative to control.
In assay [27] the target is T2, Testis-specific serine/threonine-protein kinase 2 (Homo sapiens) (UniProt Q96PF2).
T2 sequence (whole entry): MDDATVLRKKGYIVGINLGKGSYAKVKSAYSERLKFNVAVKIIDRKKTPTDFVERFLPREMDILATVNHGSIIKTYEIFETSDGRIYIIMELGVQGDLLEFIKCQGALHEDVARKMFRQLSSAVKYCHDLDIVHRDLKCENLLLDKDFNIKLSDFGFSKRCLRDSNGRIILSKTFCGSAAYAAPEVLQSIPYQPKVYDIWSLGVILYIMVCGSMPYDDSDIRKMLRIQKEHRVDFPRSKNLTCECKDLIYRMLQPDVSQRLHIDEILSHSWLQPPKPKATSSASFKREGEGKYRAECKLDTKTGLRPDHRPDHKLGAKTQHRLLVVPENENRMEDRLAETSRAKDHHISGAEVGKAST
As to the kind of experiment: Inhibition of TSSK2 (unknown origin) at 0.19 uM relative to control.

Assay [28] relates to Epidermal growth factor receptor (Homo sapiens), P00533 [T790M]. Kind of assay: Inhibition of EGFR T790M mutant (unknown origin) at 0.19 uM relative to control.
Assay [29] addresses Dual specificity protein kinase CLK2 (Homo sapiens) (UniProt P49760). Kind of assay: Inhibition of CLK2 (unknown origin) at 0.19 uM relative to control.
The target of assay [30] is CDK6/cyclin D3 (Homo sapiens) (UniProt P30281+Q00534). As to the kind of experiment: Inhibition of CDK6/CyclinD3 (unknown origin) at 0.19 uM relative to control. The class given is protein-complex assay.

Chain of Calcium/calmodulin-dependent protein kinase type II subunit beta (Homo sapiens) (Q13554 whole entry): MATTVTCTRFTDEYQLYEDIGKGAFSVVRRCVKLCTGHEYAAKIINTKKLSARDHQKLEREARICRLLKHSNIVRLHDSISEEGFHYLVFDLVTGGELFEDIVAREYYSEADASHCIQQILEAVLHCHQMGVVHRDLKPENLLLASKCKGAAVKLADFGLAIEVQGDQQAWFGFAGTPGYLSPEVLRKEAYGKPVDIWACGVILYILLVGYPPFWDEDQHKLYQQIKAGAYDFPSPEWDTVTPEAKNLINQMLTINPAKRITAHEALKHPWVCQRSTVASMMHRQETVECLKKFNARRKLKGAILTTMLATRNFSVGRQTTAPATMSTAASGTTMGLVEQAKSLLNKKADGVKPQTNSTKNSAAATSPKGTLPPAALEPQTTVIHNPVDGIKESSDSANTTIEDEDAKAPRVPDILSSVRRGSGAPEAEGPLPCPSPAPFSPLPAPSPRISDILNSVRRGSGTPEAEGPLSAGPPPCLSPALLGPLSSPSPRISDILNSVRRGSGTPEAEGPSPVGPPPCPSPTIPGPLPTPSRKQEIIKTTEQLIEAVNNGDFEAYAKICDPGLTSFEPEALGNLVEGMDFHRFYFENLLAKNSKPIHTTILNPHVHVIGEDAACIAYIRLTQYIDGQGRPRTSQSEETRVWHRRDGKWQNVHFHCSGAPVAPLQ
Chain of Discoidin domain-containing receptor 2 (Homo sapiens) (Q16832 whole entry, the tested form may be a part): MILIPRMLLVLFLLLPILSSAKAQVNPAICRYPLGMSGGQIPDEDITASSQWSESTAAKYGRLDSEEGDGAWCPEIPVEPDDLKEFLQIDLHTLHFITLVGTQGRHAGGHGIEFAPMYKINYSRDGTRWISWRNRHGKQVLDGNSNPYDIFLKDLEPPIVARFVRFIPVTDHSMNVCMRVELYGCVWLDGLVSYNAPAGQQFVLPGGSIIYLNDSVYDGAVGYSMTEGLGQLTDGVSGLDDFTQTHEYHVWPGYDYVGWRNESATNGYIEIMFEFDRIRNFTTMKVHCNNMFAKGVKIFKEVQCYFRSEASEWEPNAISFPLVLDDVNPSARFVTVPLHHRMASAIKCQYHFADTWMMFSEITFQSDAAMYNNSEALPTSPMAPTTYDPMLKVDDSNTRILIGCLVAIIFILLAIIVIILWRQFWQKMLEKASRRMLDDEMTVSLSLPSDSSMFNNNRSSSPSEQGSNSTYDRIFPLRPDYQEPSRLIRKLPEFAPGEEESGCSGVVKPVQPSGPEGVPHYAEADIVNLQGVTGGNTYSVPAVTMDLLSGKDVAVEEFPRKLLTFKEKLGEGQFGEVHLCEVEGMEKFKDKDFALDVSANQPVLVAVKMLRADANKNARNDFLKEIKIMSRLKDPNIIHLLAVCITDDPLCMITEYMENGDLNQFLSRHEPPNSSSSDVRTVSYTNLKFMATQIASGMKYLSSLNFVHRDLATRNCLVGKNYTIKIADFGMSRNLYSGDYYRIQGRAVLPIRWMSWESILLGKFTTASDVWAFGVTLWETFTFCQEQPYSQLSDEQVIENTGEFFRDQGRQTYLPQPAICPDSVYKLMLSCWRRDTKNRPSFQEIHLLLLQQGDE
Chain of Tyrosine-protein kinase Lyn (Homo sapiens) (P07948 2-512 limits assumed): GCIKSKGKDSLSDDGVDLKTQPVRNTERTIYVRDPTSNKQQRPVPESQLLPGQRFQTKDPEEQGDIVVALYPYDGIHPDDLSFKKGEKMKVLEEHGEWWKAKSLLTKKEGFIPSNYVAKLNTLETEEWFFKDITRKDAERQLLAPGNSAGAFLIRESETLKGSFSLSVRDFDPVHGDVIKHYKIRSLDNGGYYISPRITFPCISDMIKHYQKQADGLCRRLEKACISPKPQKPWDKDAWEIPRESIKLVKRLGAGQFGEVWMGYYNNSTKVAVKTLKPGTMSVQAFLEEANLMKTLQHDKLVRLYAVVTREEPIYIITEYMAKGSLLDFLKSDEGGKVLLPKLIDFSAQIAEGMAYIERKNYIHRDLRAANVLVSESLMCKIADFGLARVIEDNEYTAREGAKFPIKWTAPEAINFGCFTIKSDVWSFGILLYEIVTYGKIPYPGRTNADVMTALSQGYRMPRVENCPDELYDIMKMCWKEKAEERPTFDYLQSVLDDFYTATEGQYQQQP
Chain of Dual specificity tyrosine-phosphorylation-regulated kinase 2 (Homo sapiens) (Q92630 whole entry): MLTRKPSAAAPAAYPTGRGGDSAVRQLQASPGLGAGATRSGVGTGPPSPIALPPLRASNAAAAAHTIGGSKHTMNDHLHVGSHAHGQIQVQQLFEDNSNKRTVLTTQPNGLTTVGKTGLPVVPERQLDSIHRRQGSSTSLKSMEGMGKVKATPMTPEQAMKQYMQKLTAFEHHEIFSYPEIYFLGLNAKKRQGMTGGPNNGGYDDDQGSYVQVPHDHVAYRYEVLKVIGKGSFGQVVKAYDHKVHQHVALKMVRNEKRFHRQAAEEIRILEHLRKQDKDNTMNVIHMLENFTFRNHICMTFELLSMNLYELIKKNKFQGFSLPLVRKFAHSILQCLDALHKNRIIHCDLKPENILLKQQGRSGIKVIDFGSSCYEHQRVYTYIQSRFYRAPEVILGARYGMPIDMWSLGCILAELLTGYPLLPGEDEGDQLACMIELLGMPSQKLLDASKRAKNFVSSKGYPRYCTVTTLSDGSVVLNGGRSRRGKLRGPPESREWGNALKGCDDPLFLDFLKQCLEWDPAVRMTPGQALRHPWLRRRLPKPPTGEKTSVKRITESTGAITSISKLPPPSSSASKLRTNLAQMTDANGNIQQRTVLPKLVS
Chain of Serine/threonine-protein kinase 3 (Homo sapiens) (Q13188 whole entry): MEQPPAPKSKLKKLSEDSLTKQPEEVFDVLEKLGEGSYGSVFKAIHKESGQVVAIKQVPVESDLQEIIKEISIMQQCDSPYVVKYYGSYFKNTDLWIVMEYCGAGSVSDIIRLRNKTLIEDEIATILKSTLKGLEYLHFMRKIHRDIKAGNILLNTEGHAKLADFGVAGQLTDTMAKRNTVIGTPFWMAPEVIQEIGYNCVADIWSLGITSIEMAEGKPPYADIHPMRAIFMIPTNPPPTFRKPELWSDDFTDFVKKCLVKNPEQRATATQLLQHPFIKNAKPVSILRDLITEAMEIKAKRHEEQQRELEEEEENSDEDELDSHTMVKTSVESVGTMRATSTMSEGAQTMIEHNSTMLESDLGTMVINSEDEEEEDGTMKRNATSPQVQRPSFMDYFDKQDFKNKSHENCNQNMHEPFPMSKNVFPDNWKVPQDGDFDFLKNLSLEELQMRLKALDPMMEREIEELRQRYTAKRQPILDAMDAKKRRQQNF
Chain of Cytoplasmic tyrosine-protein kinase BMX (Homo sapiens) (P51813 whole entry): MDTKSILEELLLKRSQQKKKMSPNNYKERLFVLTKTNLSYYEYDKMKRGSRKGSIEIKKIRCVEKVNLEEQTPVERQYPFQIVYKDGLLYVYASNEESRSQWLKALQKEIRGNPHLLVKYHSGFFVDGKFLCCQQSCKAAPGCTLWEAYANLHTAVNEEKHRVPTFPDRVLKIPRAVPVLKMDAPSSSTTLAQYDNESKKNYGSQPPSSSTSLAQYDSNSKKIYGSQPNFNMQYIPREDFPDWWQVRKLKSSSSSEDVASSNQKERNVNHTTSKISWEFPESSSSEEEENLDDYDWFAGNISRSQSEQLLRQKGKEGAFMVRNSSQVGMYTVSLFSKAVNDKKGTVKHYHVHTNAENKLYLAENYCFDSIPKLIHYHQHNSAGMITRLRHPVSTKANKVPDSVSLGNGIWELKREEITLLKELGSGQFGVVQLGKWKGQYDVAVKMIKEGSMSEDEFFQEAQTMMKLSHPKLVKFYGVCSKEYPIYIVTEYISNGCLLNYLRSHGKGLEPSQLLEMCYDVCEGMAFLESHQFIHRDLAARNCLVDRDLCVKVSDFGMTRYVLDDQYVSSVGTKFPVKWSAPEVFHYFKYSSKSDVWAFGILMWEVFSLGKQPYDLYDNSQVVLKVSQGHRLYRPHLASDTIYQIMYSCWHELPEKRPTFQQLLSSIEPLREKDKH
Chain of Serine/threonine-protein kinase Sgk1 (Homo sapiens) (O00141 whole entry): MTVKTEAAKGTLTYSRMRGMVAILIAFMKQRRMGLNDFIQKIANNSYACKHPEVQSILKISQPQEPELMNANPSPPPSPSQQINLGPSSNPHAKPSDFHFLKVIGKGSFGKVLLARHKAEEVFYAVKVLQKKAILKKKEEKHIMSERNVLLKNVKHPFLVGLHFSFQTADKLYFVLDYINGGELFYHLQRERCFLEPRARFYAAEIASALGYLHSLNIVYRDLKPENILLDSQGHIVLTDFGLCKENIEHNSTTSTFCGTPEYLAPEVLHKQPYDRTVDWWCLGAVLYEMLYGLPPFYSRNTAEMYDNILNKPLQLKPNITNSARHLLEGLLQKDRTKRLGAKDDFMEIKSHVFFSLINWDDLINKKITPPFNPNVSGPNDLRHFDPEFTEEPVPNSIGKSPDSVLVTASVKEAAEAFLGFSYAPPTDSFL
Chain of Serine/threonine-protein kinase PAK 3 (Homo sapiens) (O75914 whole entry, looked up): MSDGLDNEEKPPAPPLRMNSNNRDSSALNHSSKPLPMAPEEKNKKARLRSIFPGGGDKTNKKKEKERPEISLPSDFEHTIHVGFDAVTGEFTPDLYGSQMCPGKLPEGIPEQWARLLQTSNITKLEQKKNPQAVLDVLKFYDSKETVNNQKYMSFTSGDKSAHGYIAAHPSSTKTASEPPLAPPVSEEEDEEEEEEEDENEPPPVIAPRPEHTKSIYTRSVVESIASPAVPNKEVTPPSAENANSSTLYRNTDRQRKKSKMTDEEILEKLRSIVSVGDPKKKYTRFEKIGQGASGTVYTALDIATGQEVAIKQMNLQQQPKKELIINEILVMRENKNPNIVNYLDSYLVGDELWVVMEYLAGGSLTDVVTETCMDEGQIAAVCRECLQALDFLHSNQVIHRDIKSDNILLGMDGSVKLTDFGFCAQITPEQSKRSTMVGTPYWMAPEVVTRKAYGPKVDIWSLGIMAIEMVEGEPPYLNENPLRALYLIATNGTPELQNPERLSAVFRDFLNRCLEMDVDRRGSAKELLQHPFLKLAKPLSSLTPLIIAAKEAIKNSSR

`COC(=O)Nc1cc(-c2c(C3CC3)n[nH]c2C)cc2[nH]ncc12`: the inhibition in [1] was 0.3%; in [2], 5.3%; in [3], 0.3%; in assay [4], 7%; in assay [5], -2.3%; in assay [6] it was 1.7%. The inhibition in assay [7] is 5.7%; in [8] it was -2%; in [9], 2.7%; in [10], 3.3%; in assay [11] it was 4.7%; in assay [12], 1.7%.

As for `Cc1n[nH]c(C)c1-c1ccc2c(NC(=O)c3ccc(N4CCN(C)CC4)cc3)n[nH]c2c1`, the inhibition was -0.3% in [13] and -8.3% in [14].

For the compound `Cc1[nH]nc(C2CC2)c1-c1ccc2c(-c3ccc(N4CCN(C)CC4)nc3)n[nH]c2c1`, the inhibition in [15] is 13.7%; in [16], -3.7%; in assay [17], 2.3%; in [18], 4.7%; in [19], 1%; in [20], 3.3%. Also, the inhibition in assay [21] is -3%; in assay [22], 13.7%; in [23], 5.3%; in assay [24] it was 99.7%; in [25] it was -0.7%; in assay [26] it was -1%. Further, the inhibition in assay [27] is -2%; in assay [28] it was 0.7%; in [29] it was -0.3%; in assay [30], -2%.

For the origin of these results see ChEMBL document CHEMBL4118098, “Discovery of DS28120313 as a potent orally active hepcidin production inhibitor: Design and optimization of novel 4,6-disubstituted indazole derivatives” (Bioorg Med Chem Lett, 2017).
